Conditions: Liquid

CCC(O)CO (centres undefined) [1,2-butanediol]
Conditions	vapor or sublimation pressure [kPa]
372.06 K	1.89
382.61 K	3.33
390.52 K	4.96
395.55 K	6.36
399.56 K	7.66
402.61 K	8.81
405.13 K	9.9
405.42 K	10
408.5 K	11.39
413.34 K	14.09
418.29 K	17.27
421.49 K	19.63
424.91 K	22.54
427.57 K	25.06
429.92 K	27.24
432.76 K	30.39
435.37 K	33.36
438.52 K	37.3
439.97 K	39.3
441.78 K	41.9
443.55 K	44.75

OCCO [1,2-ethanediol]
Conditions	vapor or sublimation pressure [kPa]
386.15 K	3.92
389.12 K	4.51
389.95 K	4.78
390.75 K	4.89
395.25 K	6.08
400.78 K	7.87
402.15 K	8.37
405.85 K	9.85
406.09 K	10
406.25 K	10.02
409.3 K	11.42
411.15 K	12.41
411.85 K	12.85
413.85 K	13.85
416.45 K	15.37

CC(O)CO (centres undefined) [1,2-propanediol]
Conditions	vapor or sublimation pressure [kPa]
398.23 K, Ebulliometric method (Recirculating still)	10

CC(O)CCO (centres undefined) [1,3-butanediol]
Conditions	vapor or sublimation pressure [kPa]
387.75 K	2.43
395.13 K	3.6
402.05 K	5.03
406.61 K	6.26
411.11 K	7.72
413.41 K	8.54
416.91 K	10
418.03 K	10.48
420.85 K	11.87
422.04 K	12.54
425.8 K	14.63
427.74 K	15.84
429.75 K	17.09
433.71 K	19.96
436.29 K	22.24
439.65 K	25.3
442.45 K	28.15
444.75 K	30.78
447.01 K	33.36
449.8 K	36.78
451.7 K	39.45
453.1 K	41.39
